{
  "source": "patent US20050049202A1",
  "about": "“Benzoic acid derivatives and uses thereof” (priority 2000, published 2005)",
  "key": {"[1]": {"system": "THP-1 clone No. 53 (containing pGL2-Control)", "assay": "Luciferase reporter gene assay, control clone No. 53", "assay_type": "cell-based", "details": "control clone 53", "description": "(§1) One method for identifying a the ability of a compound of the present invention to induce mRNA degradation, comprises i) contacting the compound with a DNA expression system which in the absence of the compound is capable of expressing a protein having a detectable signal, wherein the mRNA which codes for the protein and which is transcribed from the expression system comprises at least one copy of a mRNA instability sequence; ii) measuring the detectable signal in the presence of the test compound and comparing the result obtained with a control. A related method can be used to compare compounds which induce mRNA degradation. This method comprises separately contacting the compounds with a DNA expression system which in the absence of the compounds is capable of expressing a protein having a detectable signal, wherein the mRNA which codes for the protein and which is transcribed from the expression system comprises at least one copy of a mRNA instability sequence, measuring the detectable signal in the presence of each test compound and comparing the signals obtained.\n(§2) The THP-1 cell lines, clone No. 63 (containing PGL2_Neo30) and clone No. 53 (containing pGL2-Control) are grown, differentiated and stimulated with IFN-γ and LPS identical to normal THP-1 cells (for details see WO 00/39314). Compound is added 16 hrs after the addition of LPS and cell extracts are then taken 8 hrs later or as indicated. Luciferase activity was inhibited by 1 μM benzoic acid derivative on average by 40%, whereas up to 5 μM of benzoic acid derivative had no effects on the control clone No. 53."}, "[2]": {"system": "THP-1 clone No. 63 (containing PGL2_Neo30)", "assay": "Luciferase reporter gene assay for compounds which destabilize mRNA, clone No. 63", "assay_type": "cell-based", "details": "clone 63", "description": "as §1, §2"}},
  "data": [
    {"molecule": "COc1cccc(C)c1C(=O)OC[C@@H]1C=CC(=O)O1", "values": [
      {"measurement": "Luciferase reporter gene assay (% control)", "setting": "[1]; 0.5 μM", "result": 89, "unit": "% control"},
      {"measurement": "Luciferase reporter gene assay (% control)", "setting": "[1]; 1 μM", "result": 93, "unit": "% control"},
      {"measurement": "Luciferase reporter gene assay (% control)", "setting": "[1]; 5 μM", "result": 99, "unit": "% control"},
      {"measurement": "Luciferase reporter gene assay (% control)", "setting": "[2]; 0.5 μM", "result": 85, "unit": "% control"},
      {"measurement": "Luciferase reporter gene assay (% control)", "setting": "[2]; 1 μM", "result": 79, "unit": "% control"},
      {"measurement": "Luciferase reporter gene assay (% control)", "setting": "[2]; 5 μM", "result": 29, "unit": "% control"}
    ]}
  ]
}
